Converted amounts (≈) assume the structure as drawn.
Assays:
C. albicans (R02 strain) = assay: microbe, parasite or virus in culture; assay type: cell-based, Candida albicans; settings: C. albicans R02; 0.5 × MIC of PDAP20 or 0.5 × MIC50 of fluconazole; 30 passages; duplicates
Procedure: Drug resistance studies. Drug resistance was induced by treating the C. albicans (R02 strain) repeatedly with antifungal agents. […]
albicans were tested for 30 passages of growth, which is long enough and adopted by many studies. C. albicans exposed to the 1/2 MIC concentration at the particular passage were re-grown to a logarithmic growth phrase and re-used for the subsequent passage’s MIC measurement for the same antifungal agent. Drug-resistant behavior of C. albicans was evaluated by recording the changes in the MIC compared to the original passage. All measurements were performed in duplicates. […]

C. albicans (K1 strain) = assay: Intracellular ROS detection (DCFH fluorescence); assay type: cell-based, Candida albicans; settings: DCF fluorescence, positive control 40 mM H2O2; rises with time and PDAP20 concentration
Procedure: Energy depletion analysis. For energy depletion experiments, cell suspension of C. albicans (K1 strain) at 3.0 × 10^6 CFU/mL was pretreated with RPMI containing 5 mM NaN 3 for 1 h. For antifungal efficiency assay, a fresh cell suspension pretreated or non-pretreated with NaN 3 were incubated with 50 μg/mL PDAP 20 or without an antifungal agent (as energy depletion control) for 24 h. The fresh cell suspension without antifungal agents before and after incubation with NaN 3 for 24 h were used as the controls, respectively. The suspensions were diluted and plated on YPD agar. The plates were incubated at 30 °C for 24 h and colony amounts were counted. The cell viability after incubation at 4 °C with 50 μg/mL PDAP 20 or without an antifungal agent (as positive control) was measured using the same method. […]
For flow cytometry experiment, a fresh cell suspension pretreated or non-pretreated with NaN 3 was incubated with 50 μg/mL CPM-PDAP 20 for 1 h and 2 h, respectively. Fungal cells were washed by PBS to remove polymers, and 5.0 × 10^4 cells were counted and anaysized. The polymer uptake was calculated by flow cytometry (Backman). Furthermore, cell suspensions were incubated with 10 μg/mL PI for 10 min for calculated PI uptake. […]
DNA fragmentation assay. Apoptosis induced DNA fragments in C. albicans cells were analyzed using the TdT-mediated dUTP Nick-End Labeling (TUNEL) method. […]

[1] = test system: endothelial cells (HUVEC); assay: Cytotoxicity, MTT assay; assay type: cell-based, human; settings: Homo sapiens, HUVEC, 24 h, 37 °C, 800 to 1.6 μg/mL, 50% cell viability
Procedure: Cytotoxicity assay. Cytotoxicity tests were performed on NIH 3T3 fibroblast cells, endothelial cells (HUVEC), macrophage (RAW264.7), liver cells (LO2), kidney cells (COS7) and enterocyte (NCM-460) using MTT assay. Cells were cultured in DMEM supplemented with 10% FBS, 5% penicillin, 2 mM L-glutamine and incubated at 37 °C in 5% CO 2. Cells were harvested and seeded onto 96-well plates at a density of 1.0 × 10^4 cells per well and incubated for 24 h. On each plate, wells containing growth medium only and cells in growth medium without any antifungal agent were used as the negative and positive control, […]
concentrations ranging from 800 to 1.6 μg/mL. Medium in each cell-containing well was replaced with 100 μL of the corresponding polymer solution, and the plates were incubated at 37 °C for 24 h. Then, the solution in each well was switched to 100 µL MTT solution (1 mg/mL) and the plate was incubated in the dark at 37 °C for 4 h. […] Then 85 µL of the supernatant from each well was transferred to the corresponding well in a new plate, followed by absorbance measurement at 570 nm on a plate reader. […] The percentage of cell viability in each test well, relative to the positive control (which defines 100%) w as calculated from [% fibroblast growth = (A polymer – Ablank)/(Acontrol – A blank) × 100]. […]

Compound | Development of drug resistance on continuous treatment (C. albicans (R02 strain)) | Intracellular ROS level (C. albicans (K1 strain)) | IC50 [1] [µg/mL]
poly(DL‐diaminopropionic acid) [PDAP20] | didn't acquire resistance | higher than that of the hydrogen peroxide‐treated fungal cells | –
C[C@@H]1[C@H](O)[C@@H](C)/C=C/C=C/C=C/C=C/C=C/C=C/C=C/[C@H](O[C@@H]2O[C@H](C)[C@@H](O)[C@H](N)[C@@H]2O)C[C@@H]2O[C@](O)(C[C@@H](O)C[C@@H](O)[C@H](O)CC[C@@H](O)C[C@@H](O)CC(=O)O[C@H]1C)C[C@H](O)[C@H]2C(=O)O [AmpB, amphotericin B] | – | – | 8.8 (≈ 9.52 µM)
